Experimental data taken from the SangsterLogP compilation.

Test: method code SF-AS, from DOI: 10.1002/zfch.19810211114

logP | Structure (SMILES)
-1.3 | CC(C)NC(=O)NN
-1.62 | CCNC(=O)NN
-1.1 | CCCNC(=O)NN
-1.55 | C=CCNC(=O)NN
0.46 | CCCCCCNC(=O)NN
-0.81 | CC(C)(C)NC(=O)NN
-0.62 | CCN(CC)C(=O)NN
-0.04 | CCCCCNC(=O)NN

Further lines, the compound ahead of its results:

Structure (SMILES) | logP
NNC(N)=O | -2.75
NNC(=O)NCc1ccccc1 | -0.22
CCCCNC(=O)NN | -0.6
CNC(=O)NN | -2.2
CN(C)C(=O)NN | -1.57
NNC(=O)NC1CCCCC1 | 0.15
CC(C)CNC(=O)NN | -0.84
